According to patent US6796312B2, “Process and apparatus for the removal of toxic components of tobacco smoke and the standardization of the health hazards related to those components” (priority 2001, dated 2004):
Like-named read-outs stand apart in the source and are kept apart here.

Legend:
[1] = test system: human oral fluid-cell harvests; assay: cells; type: cell-based
[2] = test system: peripheral inflammatory cells of oral fluid-cell harvests; type: cell-based, human
myeloperoxidase = target: T1, myeloperoxidase (Homo sapiens, UniProt P05164); assay: NADH2-NDGA-myeloperoxidase spectrophotometric assay of sputum / oral fluid-cell harvest supernatant extracts; type: biochemical; details: for IC50: read-out: concentration that produces fifty (50) percent inhibition of myeloperoxidase
T1 construct: Homogenates were centrifuged at 1,300×g for ten (10) minutes and the supernatant extracts were kept during the course of analysis; from tissue; host or cells: human sputum / oral fluid-cell harvest (neutrophil-rich) homogenate supernatants
T1 sequence (P05164 49-745): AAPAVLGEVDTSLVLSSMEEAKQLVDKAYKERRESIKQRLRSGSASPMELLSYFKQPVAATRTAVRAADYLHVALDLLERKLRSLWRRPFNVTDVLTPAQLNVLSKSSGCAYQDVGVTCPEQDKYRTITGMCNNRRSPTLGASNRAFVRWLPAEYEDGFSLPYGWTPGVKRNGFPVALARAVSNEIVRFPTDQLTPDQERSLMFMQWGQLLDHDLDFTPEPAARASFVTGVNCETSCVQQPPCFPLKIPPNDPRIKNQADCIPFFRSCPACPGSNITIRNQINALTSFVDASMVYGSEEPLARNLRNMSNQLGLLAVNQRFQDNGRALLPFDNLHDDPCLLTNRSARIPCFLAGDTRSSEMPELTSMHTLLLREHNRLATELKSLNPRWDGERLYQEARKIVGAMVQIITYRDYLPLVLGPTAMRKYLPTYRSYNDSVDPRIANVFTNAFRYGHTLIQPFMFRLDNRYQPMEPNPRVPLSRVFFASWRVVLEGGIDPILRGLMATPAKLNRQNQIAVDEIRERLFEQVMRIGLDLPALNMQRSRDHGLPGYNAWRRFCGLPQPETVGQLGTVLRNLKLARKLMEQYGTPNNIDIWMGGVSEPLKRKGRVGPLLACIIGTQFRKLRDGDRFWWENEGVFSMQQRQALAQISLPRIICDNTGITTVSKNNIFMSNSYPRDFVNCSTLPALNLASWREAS
Method: Aliquots of fresh human oral fluid-cell harvests as exemplified above or fresh human sputum collected by the donors over a twenty-four (24) hour period were disrupted employing either Ten Broeck glass homogenizers or the Virtis homogenizer. Homogenates were centrifuged at 1,300×g for ten (10) minutes and the supernatant extracts were kept during the course of analysis at zero degrees centigrade (0° C.). Other reactants were incubated at thirty-five degrees centigrade (35° C.). Reduced nicotinamide-adenine dinucleotide oxidase and norhydroguaiaretic acid-myeloperoxidase activities were followed at 340 mμ or (nm) employing the Beckman Model DU Spectrophotometer temperature regulated at thirty-five degrees centigrade (35° C.). All specific reactions were run as duplicate assays.
Although this oxidation was very small under the conditions of experiment, an interaction correction factor was determined and applied to all reduced nicotinamide-adenine dinucleotide-nordihydroguaiaretic acid-mycloperoxidase assay reactions.
The velocity constants for the myeloperoxidase reactions behaved and were computed in accord with zero order reaction kinetics. […] In most instances, the activities followed first order reaction kinetics for a short interval and then ceased abruptly. The latter may be due to the presence or accumulation of variable concentrations of an unidentified inhibitor or inhibitors in the supernatants. Since in all cases the oxidase activities were very slow relative to the myeloperoxidase activities, the difference in optical density over the course of the reactions (up to ten (10) minutes) for the oxidase system were computed in the same manner as the data for the rapid myeloperoxidase system. Thus, all velocity constants were expressed in μ Moles of reduced nicotinamide-adenine dinucleotide oxidized per minute per ml. of oral fluid-cell harvest or sputum. The small oxidase activities were applied as a correction factor in the computation of all myeloperoxidase velocity constants.
The pH optimum of the myeloperoxidase system was determined. When fresh nordihydroguaiaretic acid solutions were prepared and interaction rates with reduced nicotinamide-adenine dinucleotide were subtracted as controls from oral lavage and sputum supernatant myeloperoxidase activities, the net velocity constants were zero (0). On the other hand, five (5) hour old nordihydroguaiaretic acid solutions yielded optimal activities at approximately pH 7.4. Subsequent experiments uniformly were carried out at pH 7.0 using five (5) hour old solutions to minimize the rates of the auto oxidation of nordihydroguaiaretic acid and oxidation of reduced nicotinamide-adenine dinucleotide by nordihydroguaiaretic acid when employing alkaline pH's.

[3] = test system: myeloperoxidase (verdoperoxidase); details: cited from earlier work
[4] = test system: polymorphonuclear neutrophils; details: cited from earlier work
[5] = test system: granular masses and polymorphonuclear neutrophils; details: cited from earlier work
[6] = Homo sapiens, read-out: inhibition of aerobic (d) glucose dependent metabolism
[7] = Homo sapiens, read-out: inhibition of aerobic endogenous metabolism
[8] = Homo sapiens, read-out: inhibition of anaerobic glucose metabolism
[9] = with added 0.024 Molar hydrogen peroxide
[10] = Homo sapiens, read-out: inhibition of anaerobic glucolysis

C=CC=O [Acrolein, acrolein]
inhibition at 1 µM [1, 6]: 49% | inhibition at 2.5 µM [1, 6]: 81% | inhibition at 1 µM [1, 7]: 48% | inhibition at 2.5 µM [1, 7]: 66% | inhibition at 10 µM [1, 8]: 18% | inhibition at 25 µM [1, 8]: 43% | peripheral inflammatory cell function [2]: impaired to virtual total loss of function

[F-].[Na+] [Sodium Flouride, sodium fluoride]
IC50 (myeloperoxidase): 63 mM | inhibition of myeloperoxidase activity [3]: inhibited

nitric oxide [Nitrogen oxide]
influence on metabolism [1]: did not influence | influence on cell function [2]: did not influence

NO [Hydroxylamine, hydroxylamine]
IC50 (myeloperoxidase; supernatant extracts): 0.33 mM | inhibition of hydrogen peroxide-dependent nitro-blue tetrazolium reducing enzyme activity [4, 9]: inhibited markedly | inhibition of endogenous reactions in polymorphonuclear neutrophils and granular masses [5]: not inhibited | inhibition of myeloperoxidase activity ([3]; Agner 1941, 1958): inhibited

[Cu+2] [cupric ion]
inhibition of exogenous hydrogen peroxide-dependent reaction in polymorphonuclear neutrophils ([4]; low concentrations): inhibited completely | inhibition of endogenous reactions in granular masses and polymorphonuclear neutrophils ([5]; low concentrations): inhibited completely

[O]N=O [Nitrogen dioxide, nitrogen dioxide]
inhibition of aerobic metabolism [1]: variable and, at times, doubtful inhibitions | peripheral inflammatory cell function [2]: enhanced peripheral inflammatory cell function

OO [Hydrogen peroxide, hydrogen peroxide]
inhibition of hydrogen peroxide-dependent nitro-blue tetrazolium reducing enzyme activity ([4]; 0.15 Molar hydrogen peroxide): totally | inhibition of endogenous nitro-blue tetrazolium reducing enzyme activity in granular masses ([5]; 0.15 Molar hydrogen peroxide): 100%

CC=O [Acetaldehyde, acetaldehyde]
inhibition at 100 µM [1, 6]: 25% | inhibition at 1000 µM [1, 6]: 60% | inhibition at 100 µM [1, 10]: 10% | inhibition at 1000 µM [1, 10]: 30%

O=C(O)CI [iodoacetate]
inhibition of exogenous hydrogen peroxide-dependent reaction in polymorphonuclear neutrophils [4]: inhibited completely | inhibition of endogenous reactions in granular masses and polymorphonuclear neutrophils [5]: inhibited completely

B1: crystalline catalase (protein, UniProt P00432 2-527, looked up)
Catalase: ADNRDPASDQMKHWKEQRAAQKPDVLTTGGGNPVGDKLNSLTVGPRGPLLVQDVVFTDEMAHFDRERIPERVVHAKGAGAFGYFEVTHDITRYSKAKVFEHIGKRTPIAVRFSTVAGESGSADTVRDPRGFAVKFYTEDGNWDLVGNNTPIFFIRDALLFPSFIHSQKRNPQTHLKDPDMVWDFWSLRPESLHQVSFLFSDRGIPDGHRHMNGYGSHTFKLVNANGEAVYCKFHYKTDQGIKNLSVEDAARLAHEDPDYGLRDLFNAIATGNYPSWTLYIQVMTFSEAEIFPFNPFDLTKVWPHGDYPLIPVGKLVLNRNPVNYFAEVEQLAFDPSNMPPGIEPSPDKMLQGRLFAYPDTHRHRLGPNYLQIPVNCPYRARVANYQRDGPMCMMDNQGGAPNYYPNSFSAPEHQPSALEHRTHFSGDVQRFNSANDDNVTQVRTFYLKVLNEEQRKRLCENIAGHLKDAQLFIQKKAVKNFSDVHPEYGSRIQALLDKYNEEKPKNAVHTYVQHGSHLSAREKANL
inhibition of myeloperoxidase activity (myeloperoxidase; 14 units of crystalline catalase added): ~50% | inhibition of myeloperoxidase activity (myeloperoxidase; 41 units of crystalline catalase added): ~90% | inhibition of hydrogen peroxide-dependent nitro-blue tetrazolium reducing enzyme activity [4, 9]: inhibited markedly | inhibition of endogenous reactions in polymorphonuclear neutrophils and granular masses [5]: not inhibited
